Legend:
[1] = biological target: T1, Mitogen-activated protein kinase kinase kinase 5 (Homo sapiens, UniProt Q99683); experiment: ADP-Glo Assay: Table 3: The ability of test compounds to inhibit ASK1 kinase activity was determined using the luminescent ADP-Glo™ Kinase Assay and Myelin Basic Protein (MBP) as a substrate (Promega Corporation, Madison, Wis.). During the kinase reaction, ASK1 utilizes ATP and generates ADP. The remaining ATP is then depleted by addition of the ADP-Glo™ reagent which also terminates the reaction. Subsequent addition of the Kinase Detection Reagent converts the ADP that was produced during the kinase reaction to ATP, and this newly synthesized ATP is converted to light using the luciferase/luciferin reactions. The assay was performed according to the manufacturer's instructions. Briefly, purified, recombinant ASK1 (amino acids 649-946) (10-20 ng/well) was added to a 384-well, F bottom, small volume, HIbase, white plate (Greiner Bio-One, Monroe, N.C. #784075) containing 1-2 μL 5× test compound or vehicle control (diluted 1:20 from a 100% DMSO stock solution into 1× Reaction Buffer A). The enzyme was allowed to pre-incubate with test compound from 15-120 min at 30° C. before the addition of the ATP/substrate mix (final concentrations of 50 μM ATP+250 ng MBP in 1× Reaction Buffer A). The mixture was then incubated at room temperature for 40 min before the addition of ADP-Glo™ reagent and a second 40 minute room temperature incubation. […]
T1 sequence (Q99683 whole entry): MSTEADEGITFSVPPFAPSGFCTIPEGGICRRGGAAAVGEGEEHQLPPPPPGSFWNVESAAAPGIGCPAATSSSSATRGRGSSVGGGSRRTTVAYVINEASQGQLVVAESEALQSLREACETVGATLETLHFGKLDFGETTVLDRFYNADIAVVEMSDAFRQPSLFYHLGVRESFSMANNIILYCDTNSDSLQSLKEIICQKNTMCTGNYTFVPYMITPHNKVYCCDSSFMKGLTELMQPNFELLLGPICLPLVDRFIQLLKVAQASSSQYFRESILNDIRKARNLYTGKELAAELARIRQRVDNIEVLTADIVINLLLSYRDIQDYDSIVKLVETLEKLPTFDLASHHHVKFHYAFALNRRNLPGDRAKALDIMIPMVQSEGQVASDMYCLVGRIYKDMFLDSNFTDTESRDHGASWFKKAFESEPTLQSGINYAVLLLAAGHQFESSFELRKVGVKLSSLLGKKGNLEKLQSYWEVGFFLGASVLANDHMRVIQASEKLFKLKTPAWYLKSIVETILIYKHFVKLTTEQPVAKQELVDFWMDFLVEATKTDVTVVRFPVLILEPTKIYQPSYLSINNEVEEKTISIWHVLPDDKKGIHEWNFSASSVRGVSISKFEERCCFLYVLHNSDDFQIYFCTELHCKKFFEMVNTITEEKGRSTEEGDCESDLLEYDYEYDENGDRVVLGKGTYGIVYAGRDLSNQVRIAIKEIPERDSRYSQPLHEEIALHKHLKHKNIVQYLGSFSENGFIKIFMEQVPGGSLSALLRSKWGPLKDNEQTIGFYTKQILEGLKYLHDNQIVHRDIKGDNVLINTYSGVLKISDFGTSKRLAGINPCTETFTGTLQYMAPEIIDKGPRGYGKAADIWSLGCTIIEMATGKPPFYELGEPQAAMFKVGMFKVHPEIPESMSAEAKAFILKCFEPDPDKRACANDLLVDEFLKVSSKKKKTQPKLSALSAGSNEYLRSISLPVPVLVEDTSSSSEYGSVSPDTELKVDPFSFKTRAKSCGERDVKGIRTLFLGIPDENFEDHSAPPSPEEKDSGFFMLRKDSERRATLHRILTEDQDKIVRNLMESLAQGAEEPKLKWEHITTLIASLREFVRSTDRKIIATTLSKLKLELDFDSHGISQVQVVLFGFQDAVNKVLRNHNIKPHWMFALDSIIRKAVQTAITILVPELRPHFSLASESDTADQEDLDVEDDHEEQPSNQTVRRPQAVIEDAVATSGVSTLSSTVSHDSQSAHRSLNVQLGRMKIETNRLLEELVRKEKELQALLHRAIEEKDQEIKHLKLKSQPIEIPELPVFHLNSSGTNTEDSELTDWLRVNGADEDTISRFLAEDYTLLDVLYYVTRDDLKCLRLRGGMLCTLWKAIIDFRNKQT

Lysyl oxidase homolog 2 = biological target: T2, Lysyl oxidase homolog 2 (Homo sapiens, UniProt Q9Y4K0); experiment: Amine Oxidase Activity Assay: Table 4: LOXL2 amine oxidase activity was evaluated by measuring Amplex Red fluorescence using 10-20× concentrated conditioned media from CHO cells stably expressing human LOXL2. To assay for amine oxidase activity, 10 μL of the concentrated conditioned media was incubated with 2 μL of test compound in DMSO and 73 μL Assay Buffer (50 mM Borate Buffer, pH8) for 2 h at 37° C. After the 2 h incubation, 5 μL of 10 mM 1,5-Diaminopentane (DAP) diluted in Assay Buffer and 10 μL of Amplex Red Mix (8.5 μL Assay Buffer+0.5 μL of 10 mM Amplex Red+1 μL of 500 U/ml Horseradish Peroxidase) were added and the plate mixed and immediately placed on the FlexStation for fluorescence measurements. Fluorescence was read in kinetic mode every 2 min for 0.5-1 hour at excitation=544 and emission=590. The amine oxidase activity was calculated from the slope of the linear portion of the curve. Wells containing vehicle (DMSO) represented maximum activity and were set to 0% inhibition and wells containing 100 μM βAPN (3-aminopropionitrile) represented no activity and were set to 100% inhibition.
T2 sequence (Q9Y4K0 whole entry): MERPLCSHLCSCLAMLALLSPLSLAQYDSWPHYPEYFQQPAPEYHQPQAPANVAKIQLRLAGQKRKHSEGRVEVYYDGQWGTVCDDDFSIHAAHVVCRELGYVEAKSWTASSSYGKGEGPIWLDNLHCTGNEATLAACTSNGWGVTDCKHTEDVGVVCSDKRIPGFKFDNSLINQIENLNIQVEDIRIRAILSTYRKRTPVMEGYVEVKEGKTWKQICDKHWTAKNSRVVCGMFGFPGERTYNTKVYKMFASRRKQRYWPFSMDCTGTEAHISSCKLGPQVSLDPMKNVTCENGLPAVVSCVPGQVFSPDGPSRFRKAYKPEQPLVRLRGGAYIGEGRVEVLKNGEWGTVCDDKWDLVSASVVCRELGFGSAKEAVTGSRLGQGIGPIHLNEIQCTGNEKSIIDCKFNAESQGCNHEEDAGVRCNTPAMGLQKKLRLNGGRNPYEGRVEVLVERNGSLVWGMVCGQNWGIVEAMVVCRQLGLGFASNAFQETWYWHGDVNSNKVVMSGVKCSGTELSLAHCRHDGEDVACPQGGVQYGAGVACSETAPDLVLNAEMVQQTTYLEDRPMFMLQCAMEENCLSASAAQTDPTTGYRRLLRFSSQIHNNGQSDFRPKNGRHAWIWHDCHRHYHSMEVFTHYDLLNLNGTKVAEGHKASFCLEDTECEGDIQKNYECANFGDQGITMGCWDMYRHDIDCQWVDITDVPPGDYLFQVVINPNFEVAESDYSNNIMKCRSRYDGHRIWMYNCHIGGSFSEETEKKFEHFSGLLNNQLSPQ

IC50 [1]: > 1000 nM
IC50 (Lysyl oxidase homolog 2): < 300 nM
SMILES: NCc1cc(Oc2ccnc(C(=O)Nc3cccc(-c4nncn4C4CC4)c3)c2)nc(C(F)(F)F)c1

Reference: ChEMBL document CHEMBL5729129, “Apoptosis signal-regulating kinase 1 (ASK 1) inhibitor compounds” (2022)
